For eight molecules, IC50, inhibition and fold change (FC) results are on record in ChEMBL document CHEMBL3882738, “Dimethylarginine Dimethylaminohydrolase inhibitors and methods of use thereof” (2014).

Active and inactive are the calls of the source. The rule behind the calls is not given here.

Test [1] deals with T1, N(G),N(G)-dimethylarginine dimethylaminohydrolase 1 (Homo sapiens, UniProt O94760). In words: Inhibition of recombinant human DDAH1 expressed in Escherichia coli BL21 Star (DE3) using SMTC as substrate assessed as decrease in L-citrulline and methanethiol production by CPM-based fluorimetric assay.
The target of test [2] is T1, N(G),N(G)-dimethylarginine dimethylaminohydrolase 1. In words: Inhibition of recombinant human DDAH1 expressed in Escherichia coli BL21 Star (DE3) using ADMA as substrate assessed as decrease in citrulline production after 4 hrs by colorimetric method.
Test [3] has the same target. The test is described as follows: Inhibition of DDAH in fibroblasts isolated from idiopathic pulmonary fibrosis patient assessed as downregulation of BMPR1B gene expression at 5 to 50 uM relative to vehicle-treated control.
Test [4] has the same target. The test is described as follows: Inhibition of DDAH in fibroblasts isolated from chronic obstructive pulmonary disease patient assessed as upregulation of HO1 gene expression at 5 to 50 uM after 24 hrs relative to vehicle-treated control.
Test [5] has the same target. The test is described as follows: Inhibition of DDAH in fibroblasts isolated from idiopathic pulmonary fibrosis patient assessed as downregulation of ITGB1 gene expression at 5 to 50 uM relative to vehicle-treated control.
Test [6] has the same target. The test is described as follows: Inhibition of DDAH in fibroblasts isolated from late idiopathic pulmonary fibrosis patient assessed as upregulation of HO1 gene expression at 50 uM relative to control.
Test [7] has the same target. The test is described as follows: Inhibition of recombinant human DDAH1 expressed in Escherichia coli BL21 Star (DE3) using ADMA as substrate assessed as decrease in citrulline production at 50 uM preincubated with protein followed by substrate addition by colorimetric method.
For test [8] the target is unchanged. In words: Inhibition of DDAH in fibroblasts isolated from idiopathic pulmonary fibrosis patient assessed as downregulation of BMP2 gene expression at 5 to 50 uM relative to vehicle-treated control.
The target is the same in test [9]. The test is described as follows: Inhibition of recombinant human DDAH1 expressed in Escherichia coli BL21 Star (DE3) using SMTC as substrate assessed as decrease in L-citrulline and methanethiol production at 50 uM by CPM-based fluorimetric assay.
The target is the same in test [10]. The test is described as follows: Inhibition of DDAH in fibroblasts isolated from early idiopathic pulmonary fibrosis patient assessed as upregulation of HO1 gene expression at 50 uM relative to control.
Test [11] shares this target. The test is described as follows: Inhibition of recombinant human DDAH1 expressed in Escherichia coli BL21 Star (DE3) using ADMA as substrate assessed as decrease in citrulline production at 50 uM after 4 hrs by colorimetric method.
Test [12] shares this target. In words: Inhibition of DDAH in fibroblasts isolated from idiopathic pulmonary fibrosis patient assessed as downregulation of ITGB5 gene expression at 5 to 50 uM relative to vehicle-treated control.
Test [13] has the same target. In words: Inhibition of DDAH in fibroblasts isolated from idiopathic pulmonary fibrosis patient assessed as downregulation of SMAD6 gene expression at 5 to 50 uM relative to vehicle-treated control.
The target is the same in test [14]. In words: Inhibition of DDAH in bronchial epithelial cells isolated from chronic obstructive pulmonary disease patient assessed as upregulation of HO1 gene expression at 5 to 50 uM after 24 hrs relative to vehicle-treated control. It is filed as cell-based. The conditions noted are these: Epithelial cell.
Test [15] has the same target. The test is described as follows: Inhibition of DDAH in bronchial epithelial cells isolated from chronic obstructive pulmonary disease patient assessed as downregulation of TRPV1 gene expression at 5 to 50 uM after 24 hrs relative to vehicle-treated control. It is filed as cell-based. The conditions noted are these: Epithelial cell.
Test [16] has the same target. The test is described as follows: Inhibition of DDAH in fibroblasts isolated from idiopathic pulmonary fibrosis patient assessed as downregulation of ITGA5 gene expression at 5 to 50 uM relative to vehicle-treated control.
Test [17] has the same target. In words: Inhibition of DDAH in human A549 cells assessed as decrease in serum-stimulated cell proliferation at 20 uM preincubated for 2 hrs followed by fetal bovine serum addition measured 24 hrs post compound treatment by BrdU incorporation assay. It is filed as cell-based.
Test [18] has the same target. The test is described as follows: Inhibition of DDAH in fibroblasts isolated from idiopathic pulmonary fibrosis patient assessed as downregulation of TGFBR2 gene expression at 5 to 50 uM relative to vehicle-treated control.
For test [19] the target is unchanged. The test is described as follows: Inhibition of DDAH in fibroblasts isolated from idiopathic pulmonary fibrosis patient assessed as downregulation of TGFB1 gene expression at 5 to 50 uM relative to vehicle-treated control.
The target is the same in test [20]. The test is described as follows: Inhibition of DDAH in fibroblasts isolated from idiopathic pulmonary fibrosis patient assessed as downregulation of […] gene expression at 5 to 50 uM relative to vehicle-treated control.
For test [21] the target is unchanged. The test is described as follows: Inhibition of DDAH in fibroblasts isolated from idiopathic pulmonary fibrosis patient assessed as downregulation of ITGB6 gene expression at 5 to 50 uM relative to vehicle-treated control.
Test [22] shares this target. In words: Inhibition of DDAH in fibroblasts isolated from idiopathic pulmonary fibrosis patient assessed as downregulation of BMP4 gene expression at 5 to 50 uM relative to vehicle-treated control.
For test [23] the target is unchanged. In words: Inhibition of DDAH in bronchial epithelial cells isolated from chronic obstructive pulmonary disease patient assessed as downregulation of TNF-alpha gene expression at 5 to 50 uM after 24 hrs relative to vehicle-treated control. To be noted: Epithelial cell. It is filed as cell-based.
The target is the same in test [24]. The test is described as follows: Inhibition of DDAH in fibroblasts isolated from idiopathic pulmonary fibrosis patient assessed as downregulation of ITGB3 gene expression at 5 to 50 uM relative to vehicle-treated control.
Test [25] has the same target. The test is described as follows: Inhibition of DDAH in fibroblasts isolated from idiopathic pulmonary fibrosis patient assessed as downregulation of TGFBR1 gene expression at 5 to 50 uM relative to vehicle-treated control.
The target is the same in test [26]. In words: Inhibition of DDAH in fibroblasts isolated from idiopathic pulmonary fibrosis patient assessed as downregulation of MMP8 gene expression at 5 to 50 uM relative to vehicle-treated control.
For test [27] the target is unchanged. The test is described as follows: Inhibition of DDAH in fibroblasts isolated from idiopathic pulmonary fibrosis patient assessed as downregulation of BMPR2 gene expression at 5 to 50 uM relative to vehicle-treated control.
The target is the same in test [28]. In words: Inhibition of DDAH in fibroblasts isolated from idiopathic pulmonary fibrosis patient assessed as downregulation of ITGB8 gene expression at 5 to 50 uM relative to vehicle-treated control.
Test [29] has the same target. The test is described as follows: Inhibition of DDAH in HMEC1 assessed as increase in intracellular ADMA levels at 20 uM after 24 hrs by ELISA relative to vehicle-treated control. It is filed as cell-based. (ELISA stands for enzyme-linked immunosorbent assay.)
Test [30] has as its target Transforming growth factor beta (Homo sapiens) (UniProt P01137+P61812+P10600). In words: Inhibition of TGF-beta-induced acid-soluble collagen levels in lung fibroblasts isolated from late stage idiopathic pulmonary fibrosis patient at 20 uM after 24 hrs by sircol collagen assay. It counts as protein assay.

T1 sequence (O94760 whole entry): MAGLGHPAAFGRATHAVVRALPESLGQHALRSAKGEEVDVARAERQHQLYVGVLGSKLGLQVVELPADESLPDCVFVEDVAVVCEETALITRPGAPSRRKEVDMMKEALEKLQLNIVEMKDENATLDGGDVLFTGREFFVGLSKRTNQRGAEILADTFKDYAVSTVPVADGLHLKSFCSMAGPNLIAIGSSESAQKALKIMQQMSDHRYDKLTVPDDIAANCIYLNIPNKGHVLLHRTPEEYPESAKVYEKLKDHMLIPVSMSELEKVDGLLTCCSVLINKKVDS
Sequence of Transforming growth factor beta (Homo sapiens) (P01137 whole entry, looked up): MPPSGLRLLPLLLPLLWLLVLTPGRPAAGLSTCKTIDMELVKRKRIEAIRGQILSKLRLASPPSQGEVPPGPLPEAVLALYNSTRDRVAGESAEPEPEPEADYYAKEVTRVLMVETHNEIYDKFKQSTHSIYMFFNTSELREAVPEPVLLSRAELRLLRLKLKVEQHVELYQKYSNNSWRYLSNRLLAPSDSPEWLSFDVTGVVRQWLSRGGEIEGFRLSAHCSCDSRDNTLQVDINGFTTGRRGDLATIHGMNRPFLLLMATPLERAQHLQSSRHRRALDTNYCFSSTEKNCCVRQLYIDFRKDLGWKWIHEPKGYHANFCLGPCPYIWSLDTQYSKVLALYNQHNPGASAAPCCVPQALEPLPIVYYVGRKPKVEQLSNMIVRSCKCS
Sequence of Transforming growth factor beta (Homo sapiens) (P10600 whole entry, looked up): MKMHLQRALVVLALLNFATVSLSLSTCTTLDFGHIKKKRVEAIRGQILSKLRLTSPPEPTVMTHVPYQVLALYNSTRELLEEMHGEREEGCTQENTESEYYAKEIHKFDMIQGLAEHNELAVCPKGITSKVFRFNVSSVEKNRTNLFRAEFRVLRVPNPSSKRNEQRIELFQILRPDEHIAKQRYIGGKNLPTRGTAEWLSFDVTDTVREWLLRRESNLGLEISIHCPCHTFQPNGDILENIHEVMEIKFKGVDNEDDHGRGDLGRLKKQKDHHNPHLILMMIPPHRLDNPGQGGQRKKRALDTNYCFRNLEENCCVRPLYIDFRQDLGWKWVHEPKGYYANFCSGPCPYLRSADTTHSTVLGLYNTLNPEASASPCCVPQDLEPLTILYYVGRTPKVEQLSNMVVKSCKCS
Sequence of Transforming growth factor beta (Homo sapiens) (P61812 whole entry, looked up): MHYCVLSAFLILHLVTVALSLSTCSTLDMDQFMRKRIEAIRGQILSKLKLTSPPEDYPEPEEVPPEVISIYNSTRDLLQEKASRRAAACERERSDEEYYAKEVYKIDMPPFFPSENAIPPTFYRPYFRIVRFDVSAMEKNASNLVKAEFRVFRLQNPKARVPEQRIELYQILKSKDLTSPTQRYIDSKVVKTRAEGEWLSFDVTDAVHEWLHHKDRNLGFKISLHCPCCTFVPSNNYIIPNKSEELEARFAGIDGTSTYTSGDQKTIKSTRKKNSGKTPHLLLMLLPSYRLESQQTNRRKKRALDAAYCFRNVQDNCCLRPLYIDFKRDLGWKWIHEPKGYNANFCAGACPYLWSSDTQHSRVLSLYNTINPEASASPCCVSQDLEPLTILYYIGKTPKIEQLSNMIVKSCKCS

One may read the IC50 as the point on the concentration scale where inhibition reaches its midpoint. In the case of `C/N=c1\nc(-c2ccccc2)n(-c2ccccc2)s1`, the IC50 in test [1] is 13.2 µM.
On to `COc1ccnc(C[S+]([O-])c2nc3cc(OC(F)F)ccc3[nH]2)c1OC` (stereo unspecified) [PANTOPRAZOLE], for which, in [2], the IC50 was 63 µM.
Usually inhibition stands for the relative decrease from the control value, in per cent. `O=c1c2ccccc2[se]n1-c1ccccc1`: the inhibition result in test [1] is “Active”.
For the molecule `COc1ccc2[nH]c([S@@+]([O-])Cc3ncc(C)c(OC)c3C)nc2c1`, the inhibition entry in [3], in test [5], in test [7], in test [8], in test [9] and in test [11] was “Active” each time. The inhibition result in test [12], in [13], in test [15], in test [16], in test [17] and in test [18] was “Active” in each case. Further, the inhibition entry in test [19], in test [20], in [21], in [22], in test [23] and in test [24] was “Active” throughout. In addition, the inhibition entry in [25], in test [26], in test [27] and in [28] was “Active” in each case. Also, the fold change (FC) worked out at 10 in [4], 2.5 in [6], 5 in [10] and 4 in test [14]. Moreover, the inhibition in test [29] was 37%.
As for `CC1=CC(=O)C=C(C)C1=NS(=O)(=O)c1ccccc1`, in test [1], the IC50 came to 9.03 µM.
As to `COc1ccc2[nH]c([S+]([O-])Cc3ncc(C)c(OC)c3C)nc2n1` (stereo unspecified), the inhibition entry in [7] and in [11] was “Active” in each case. Also, in test [2], the inhibition entry was “Dose-dependent effect”.
Take `CC1=CC(=O)C(Cl)=C(C)/C1=N/S(=O)(=O)c1ccc(C)cc1`: the IC50 in test [1] amounted to 5.5 µM.
For the molecule `Cc1cccc(-c2nn(C(=S)Nc3ccccc3)cc2-c2ccnc3ccccc23)n1`, the inhibition entry in test [30] is “Active”.
